Where two headings read alike, the source gives them in different places.

The record followed here is patent EP1656183B1, “TREATMENT OF MALE SEXUAL DYSFUNCTION” (Pfizer Limited, priority 2003, dated 2005).

Series [1] concerns conscious rats. The series can be described thus: Copulatory behaviour in conscious rats (ejaculatory latency). It is filed as in vivo. Particulars: 0.05mgkg^-1 sc. The protocol:
For all the sexual behavour tests, the male rats were placed in an observation arena (50-60 cm diameter), starting 5 hours into the dark cycle and observed under red ilumination. Three to four minutes after placing the male in the arena, a receptive female (ovariectomised, oestradiol benzoate / progesterone injection 48 hour before behavioural study) was Introduced into the arena and the following parameters noted: • i) ejaculatory latency (EJL; time taken from addition of receptive female into the arena to ejaculation); • ii) copulatory efficiency (CE; ejaculatory latency/ the number of intromissions to ejaculation, i.e. the number of seconds between intromissions); • iii) intromission frequency (IF; the number of intromissions to ejaculation); • iv) mount frequency (MF; the number of mounts to ejaculation); • v) post ejaculatory interval (PEI; the time taken from ejaculation to the commencement of copulatory behaviour).
Rodent copulatory behaviour is characterised by a series of mounts, with and without vaginal insertion (50-80% of mounts result in intromission [vaginal penetration]) and ejaculation occurs after 6 to 12 intromissions. Each intromission lasts a matter of seconds - it is not possible to quantify intromission length i.e. intravaginal latency. The effect of L-371257 was assessed on a number of copulatory parameters (see above). […]

Series [2] deals with T1, human V1A receptor (Homo sapiens, UniProt P37288).
T1 construct: expressed in transfected cells; host or cells: CHO (CHO-hV1A cell line provided by Marc Thibonnier, Case Western Reserve University)
T1 sequence (P37288 whole entry): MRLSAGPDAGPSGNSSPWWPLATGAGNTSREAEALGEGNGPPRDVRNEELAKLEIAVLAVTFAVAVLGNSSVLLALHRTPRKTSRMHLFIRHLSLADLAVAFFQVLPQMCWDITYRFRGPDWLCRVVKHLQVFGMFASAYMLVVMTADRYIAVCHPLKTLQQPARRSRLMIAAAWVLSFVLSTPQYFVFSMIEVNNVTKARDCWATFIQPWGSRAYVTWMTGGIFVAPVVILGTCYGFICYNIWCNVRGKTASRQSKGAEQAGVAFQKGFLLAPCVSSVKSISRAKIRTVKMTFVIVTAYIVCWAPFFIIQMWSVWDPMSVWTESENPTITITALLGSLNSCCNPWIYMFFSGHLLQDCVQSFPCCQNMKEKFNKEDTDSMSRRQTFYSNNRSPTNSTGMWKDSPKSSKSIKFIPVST
As to the kind of experiment: Ligand binding assay, [3H]-AVP binding to CHO-hV1A membranes.
Protocol: Receptor binding assays were performed on cellular membranes prepared from CHO cells stably expressing the human V1A receptor, (CHO-hV1A). […] CHO-hV1A cells were routinely maintained at 37°C In humidified atmosphere with 5% CO2 in DMEM/Hams F12 nutrient mix supplemented with 10 % fetal bovine serum, 2 mM L-glutamine, 15 mM HEPES and 400 µg/ml G418. For bulk production of cell pellets, adherent CHO-hV1A cells were grown to confluency of 90-100% in 850 cm^2 roller bottles containing a medium of DMEM/Hams F12 Nutrient Mix supplemented with 10 % fetal bovine serum, 2 mM L-glutamine and 15 mM HEPES. Confluent CHO-hV1A cells were washed with phosphate-buffered saline (PBS), harvested into ice cold PBS and centrifuged at 1,000 rpm. Cell pellets were stored at -80°C until use. Cell pellets were thawed on ice and homogenised in membrane preparation buffer consisting of 50 mM Tris-HCI, pH 7.4, 5 mM MgCl2 and supplemented with a protease inhibitor cocktail, (Roche). The cell homogenate was centrifuged at 1000 rpm, 10 min, 4°C and the supernatant was removed and stored on ice. The remaining pellet was homogenised and centrifuged as before. The supernatants were pooled and centrifuged at 25,000 x g for 30 min at 4°C. The pellet was resuspended in freezing buffer consisting of 50 mM Tris-HCI, pH 7.4, 5 mM MgCl2 and 20 % glycerol and stored in small aliquots at -80°C until use. Protein concentration was determined using Bradford reagent and BSA as a standard.
Protein linearity followed by saturation binding studies were performed on each new batch of membrane. A membrane concentration was chosen that gave specific binding on the linear portion of the curve. […]
Compounds were tested for their effects on [^3H]-AVP binding to CHO-hV1A membranes, (^3H-AVP; specific activity 65.5 Ci/mmol; NEN Life Sciences). […] The plates were sealed and counted on a TopCount Microplate Scintillation Counter (Packard Instruments). Non-specific binding (NSB) was determined using 1 µM unlabelled d(CH2)5Tyr(Me)AVP ([β-mercapto-β,β-cyclopentamethylene-propionyl,0-Me-Tyr^2,Arg^8]-vasopressin) (βMCPVP), (Sigma). The radioligand binding data was analysed using a four parameter logistic equation with the min forced to 0%. […] Specific binding was calculated by subtracting the mean NSB cpm from the mean Total cpm. For test compounds the amount of ligand bound to the receptor was expressed as % bound = (sample cpm - mean NSB cpm)/specific binding cpm x100. […] The Inhibitory dissociation constant (Ki) was calculated using the Cheng-Prusoff equation: Ki=IC50/(1+[L]/Kd) where [L] is the concentration of ligand present in the well and Kd is the dissociation constant of the radioligand obtained from Scatchard plot analysis.

In series [3] the target is T2, human Oxytocin receptor (Homo sapiens, UniProt P30559).
T2 construct: expressed in transfected cells; host or cells: CHO
T2 sequence (P30559 1-389): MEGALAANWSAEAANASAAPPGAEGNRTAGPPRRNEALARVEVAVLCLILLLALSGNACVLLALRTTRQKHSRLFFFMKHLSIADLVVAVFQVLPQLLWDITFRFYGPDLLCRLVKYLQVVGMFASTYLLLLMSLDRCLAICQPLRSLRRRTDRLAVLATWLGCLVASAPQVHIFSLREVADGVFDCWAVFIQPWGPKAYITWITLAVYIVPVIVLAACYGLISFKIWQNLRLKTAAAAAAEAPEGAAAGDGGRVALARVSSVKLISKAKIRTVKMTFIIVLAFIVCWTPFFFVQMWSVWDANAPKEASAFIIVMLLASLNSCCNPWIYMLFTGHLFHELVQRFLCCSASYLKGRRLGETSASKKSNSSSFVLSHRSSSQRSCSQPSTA
The series can be described thus: Oxytocin receptor binding assay (125I-OVT, SPA). The protocol: As an example for a selectivity assay, an oxytocin receptor binding assay is described below.
CHO-cells engineered to express the human Oxytocin receptor are maintained, and membrane preparations from such cells are prepared according to standard techniques (see e.g. Example 2). They are diluted to 1 mg/ml protein concentration in assay buffer (50 mM Tris-HCl, pH7.8; 10 mM Mg Cl2; 0.25% BSA). SPA beads are resuspended at 50 mg/ml in assay buffer. From these concentrations, beads are pre-coupled with membranes by incubating 30 µg of protein per mg of bead on a top-to-tail shaker for 2 hours at 4 °C. The bead/membranes are then centrifuged at 2000 rpm for 10 mins and the pellet is resuspended at 3 mg/ml.
All manipulations of the ^125I-OVT (NEN, NEX254) are carried out using tips that have been silanised using SigmaCote. All bottles and tubes are also silanised. […] A 5 µl sample is then counted in duplicate using liquid scintillation counting (protocol 61 on Wallac Counter) and the concentration of the ligand is calculated. […] Using the measured concentration, the ^125I-OVT is diluted to 0.3 nM in assay buffer.
20 µl of the bead/membrane preparation is added to the prepared Optiplates using the Multi-drop, after the desired dilutions of test compounds are added to the wells. […] Following a 4 hour incubation at room temperature, the plates are counted using the TopCount NXT for 30s/well.

Series [4] can be described thus: Plasma concentration in the copulatory behaviour study. Type of series: in vivo. The note with it: 0.05mgkg^-1 sc, rats.
For series [5], the system named is anaesthetised rats. As to the kind of experiment: p-chloroamphetamine (PCA)-induced ejaculation and penile erection in anaesthetised rats. The note with it: for delay of p-chloroamphetamine (PCA)-induced ejaculation: vasopressin selective doses, plasma concentration of 9-31 nM; for Penile Cups / Penile Flares: % of PCA-induced erections. It is filed as in vivo, Male Sprague Dawley rats. The protocol:
In order to study penile erection and ejaculation the method used was based on the methodology taught in Yonezawa et al (2000) Life Sciences 67, 3031-3039. For ease of reference, this methodology is described below:
Male Sprague Dawley rats, weighing 350-450 g, are used. Prior to the experiments the animals are housed in groups (2 rats per cage) under controlled 12 h light-dark cycle (lights on at 07:00), constant temperature (23±1°C) and humidity (55±5%). They have free access to standard food pellets and water.
Rats are anesthestised with sodium pentobarbitone (50mg/kg, i.p.) and are placed in the supine position. The penis is extruded from its sheath and gently held by a wooden applicator positioned at the base of the penis. The test compounds are administered by intravenous infusion and p-chloroamphetamine (PCA) (5-10mg/kg) is administered i.p. immediately before the sheath retraction and the penile responses, including penile erection, redding and expansion of the penile body, glans erection, engorgement and slight flaring of the glans and cup, glans erection with Intense flaring of the glans, are recorded. Latencies from PCA administration to the initial penile response and ejaculation is also measured In seconds. […]

The mark [6] stands for this setting: plasma conc 30.9nM, listed as compound 1.

As to `COc1cc(OC2CCN(C(C)=O)CC2)ccc1C(=O)N1CCC(N2C(=O)OCc3ccccc32)CC1` [Compound L-371257, reference compound], in series [1], the “other effects on copulatory behaviour” value was “no other significant effects”. Also, in series [1] (P<0.05 versus vehicle), the Increased ejaculatory latency is 67%. Also, the “selective towards oxytocin receptors as compared with vasopressin V1a receptors” value in series [2] (as printed: OT vs V1a) is recorded as “more than 5 fold”. Moreover, the Ki was determined as 3.7 nM in series [2] (read-out: vasopressin V1a receptors (V1a; Ki V1a)) and 19 nM in series [3] (read-out: oxytocin receptors (OT)). Moreover, the Plasma conc entry in series [4] is reported as “L-371257 0.05mgkg^-1 sc Plasma conc ∼ 30nM”.
Turning to `COC1CCN(Cc2nnc(C3CCN(c4ccccn4)CC3)n2Cc2ccccc2)CC1` [Compound 1, 4-[4-Benzyl-5-(4-methoxy-piperldin-1-ylmethyl)-4H-[1,2,4]triazol-3-yl]-3,4,5,6-tetrahydro-2H-[1,2']bipyridinyl], the Ki in series [2] was 50 nM; in series [3] (read-out: oxytocin receptors (OT; Ki OT)), 3000 nM. For the same molecule, the “selective towards vasopressin V1a receptors as compared with oxytocin receptors” value in series [2] is on record as “more than 60 fold”. In series [5] (anaesthetised rats, PCA-induced), the “time taken for the rats to achieve erection” value was “not significantly affected”. The molecule also gave an Ejaculation was delayed in series [5] (anaesthetised rats, free plasma concentrations 30.9nM, near maximal effect) of 100%. For the same molecule, the “delay of p-chloroamphetamine (PCA)-induced ejaculation” value was “delays ejaculation” in series [5] (anaesthetised rats) and “significantly delayed” in series [5] (anaesthetised rats, listed as compound 1). Further, the “ejaculation and penile erection” value in series [5] (at both plasma conc 11.4nM and 30.9nM) was “* At both of these concentrations Compound 1 delayed ejaculation without affecting penile erection”. For the same molecule, the “Penile Cups” value in series [5] (plasma conc 11.4nM) was 31.6%; in series [5] (plasma conc 30.9nM) it was 57.0%; in series [5] (setting [6]) it was 57%. Further, the “Penile Flares” value was determined as 81.5% in series [5] (plasma conc 11.4nM), 83.6% in series [5] (plasma conc 30.9nM) and 84% in series [5] (setting [6]).
